Reference: patent publication US10689342B2, “Aza-tanshinone derivatives, process for their preparation and their use in therapy” (UNIVERSITA' DEGLI STUDI DI MILANO, priority 2016, dated 2020)

Columns and labels:
PANC1 = test: Scratch assay; format: cell-based; conditions: 24 hours
Description: (§1) Scratch assays have been carried out on 6-well plates and, after treatment for 24 hours with aza-tanshinone 26, the empty area of the scratched wells has been calculated by using the ImageJ software. The experiments have been carried out in duplicate.

MDA-MB-231 [1] = test: Scratch assay; format: cell-based; conditions: 24 hours (DMSO 35 ± 1.92)
Description: as §1

MDA-MB-231 cells = test: xCELLigence trans-well migration assay; format: cell-based; conditions: MDA-MB-231, THP1-conditioned medium
Description: Migration assays have been carried out by using the xCELLigence RTCA DP Instrument (Roche) by seeding 5,000 cells/well at t0 in CIM-Plates-16 (Roche), using the 1% FBS medium (THP1 conditions) in the lower chamber and MDA-MB-231 cells seeded in the same way in the upper chamber. The ability of the MDA-MB-231 cells to migrate depends also on the presence of cytokines regulated by HuR in the surrounding environment.

[2] = system: TNF mRNA in MCF-7 breast cancer cells; test: Downregulation of TNF mRNA with LPS co-treatment; format: cell-based
Description: MCF-7 breast cancer cells (5*10^4/well) have been seeded in 6-well plates and cultured under standard conditions for 24 hours. The MCF-7 cells have then been treated for 3 hours in a complete medium with compound 26, or with DMSO/control vehicle. Three hours of treatment with DHTS in the MCF-7 cells have been enough to observe HuR-dependent post-transcriptional effects (44), whereby the same experimental conditions have been used here, including the co-treatment with lipopolysaccharide (LPS) as positive control to induce the TNF expression.

[3] = system: THP-1 human leukemia monocytes; test: Cytokine mRNA levels by Q-RT-PCR; format: cell-based; conditions: THP-1, LPS 26 vs LPS DMSO = 1
Description: THP-1 human leukemia monocytes (5*10^4/well) have been seeded in a 6-well plate and cultured under standard conditions for 24 hours as already described. The mRNA total levels for a group of cytokines have been quantified by means of standard quantitative real-time PCR (Q-RT-PCR). Two-way ANOVA has been applied for a statistical significance of the effects of compound 26 on the decrease of the mRNA of the cytokines.

SW-480 = test: alamar Blue viability assay; format: cell-based
Description: (§2) Tumor cell lines of metastatic breast cancer (MDA-MB-231), breast cancer (MCF7), human monocytic leukemia (THP-1) and pancreatic carcinoma (PANC-1) have been cultured in a complete DMEM or RPMI 1640 (Gibco Life Technologies) supplemented with 10% fetal bovine serum (FBS, Lonza), 2 mM L-glutamine and 100 U/ml penicillin-streptomycin (Lonza). The cell lines have been cultured at 37° C. in 5% CO2 and have been regularly tested for Mycoplasma contamination. The viability has been measured by means of alamar Blue assay (Thermo Fisher) under treatment for 24 hours with nanomolar to micromolar doses of aza-tanshinones. The mean viability and the standard deviation (SD) per each test compound have been obtained from the dose-response curves for triple doses (0.01, 0.1, 1. 10. 50 μM) in comparison with the control vehicle (DMSO).
(§3) The group of cell lines used in Paragraph 8.2, with the addition of the tumor cell lines of the metastatic breast cancer SK-BR-3 and of the colon adenocarcinoma SW-480, has been used to measure the IC50/cytotoxicity potency of compound 26. The viability assays have been performed as shown in Paragraph 8.2.

SK-BR-3 = test: alamar Blue viability assay; format: cell-based
Description: as §2, §3

PANC-1 = test: alamar Blue viability assay; format: cell-based
Description: as §2, §3

MCF7 = test: alamar Blue viability assay; format: cell-based
Description: as §2, §3

MDA-MB-231 [4] = test: alamar Blue viability assay; format: cell-based
Description: as §2, §3

THP-1 = test: alamar Blue viability assay; format: cell-based, human
Description: as §2, §3

O=C1C=Cc2c(c(-c3ccccc3)cn2S(=O)(=O)c2ccccc2)C1=O [Compound 26, 1-Phenylsulfonyl-3-phenyl-4,5-dioxo indole]
empty area of the scratched wells (PANC1; PANC1, 26 1 μM): 38 ± 7
empty area of the scratched wells (PANC1; PANC1, 26 5 μM): 32 ± 0.01
empty area of the scratched wells (MDA-MB-231 [1]; MDA-MB-231, 26 1 μM): 45 ± 4
empty area of the scratched wells (MDA-MB-231 [1]; MDA-MB-231, 26 5 μM): 45 ± 1
Minimum of trans-well migration (MDA-MB-231 cells; 26 1 μM (LPS control 0.7176)): 0.1057
Maximum of trans-well migration (MDA-MB-231 cells; 26 1 μM (LPS control 3.053)): 1.246
Minimum of trans-well migration (MDA-MB-231 cells; 26 5 μM (LPS control 0.7176)): 0.1416
Maximum of trans-well migration (MDA-MB-231 cells; 26 5 μM (LPS control 3.053)): 0.3311
TNF mRNA level ([2]; MCF-7, LPS+26, 3 hours (LPS+DMSO 1.62)): 1.00
TNF RNA amount ([2]; MCF-7, LPS+26 relative to LPS+DMSO, 3 hours): 62%
reduction of the TNF mRNA with respect to the control ([2]; MCF-7, after 3 hours): 35%
CCL2 mRNA level [3]: 0.88
CCL5 mRNA level [3]: 0.51
CCL8 mRNA level [3]: 0.00
IFNA1 mRNA level [3]: 0.46
IFNB1 mRNA level [3]: 0.33
IFNG mRNA level [3]: 0.38
IL1A mRNA level [3]: 1.04
IL1B mRNA level [3]: 0.22
IL2 mRNA level [3]: 1.18
IL4 mRNA level [3]: 0.82
IL7 mRNA level [3]: 0.56
IL8 mRNA level [3]: 0.15
IL10 mRNA level [3]: 0.16
IL13 mRNA level [3]: 0.53
IL15 mRNA level [3]: 0.91
IL17A mRNA level [3]: 0.30
IL18 mRNA level [3]: 0.36
IL19 mRNA level [3]: 0.01
TNF mRNA level [3]: 0.38
IC50 (SW-480; Homo sapiens, SW480, cytotoxicity, 24 hours): 4.81 ± 0.23 µM
% cell death (SW-480; SW480): 62%
IC50 (SK-BR-3; Homo sapiens, SK-BR-3, cytotoxicity, 24 hours): 5.18 ± 0.11 µM
% cell death (SK-BR-3; SK-BR-3): 57%
IC50 (PANC-1; Homo sapiens, PANC-1, cytotoxicity, 24 hours): 6.27 ± 0.07 µM
% cell death (PANC-1; PANC-1): 49%
IC50 (MCF7; Homo sapiens, MCF7, cytotoxicity, 24 hours): 3.85 ± 0.08 µM
% cell death (MCF7; MCF7): 71%
IC50 (MDA-MB-231 [4]; Homo sapiens, MDA-MB-231, cytotoxicity, 24 hours): 1.57 ± 0.04 µM
% cell death (MDA-MB-231 [4]; MDA-MB-231): 66%
IC50 (THP-1; Homo sapiens, THP-1, cytotoxicity, 24 hours): 9.77 ± 0.15 µM
% cell death (THP-1; THP-1): 52%
